Assay results taken from patent US4567293A, “2-[Para-(2-substituted or unsubstituted-3,3,3-tri-fluoropropyl)phenyl]propionic acid or a salt thereof” (Kureha Kagaku Kogyo Kabushiki Kaisha, priority 1981, dated 1986).

Columns and labels:
[1] = test system: carrageenin-induced edema; assay: Anti-inflammatory activity: inhibition of carrageenin-induced edema (Example 6); assay type: in vivo, rat (female Wister); conditions: 4 hours after carrageenin
Experimental: Anti-inflammatory activity of the present compound was examined by using 10 female Wister rats of 110 to 130 g of body weight as one group following the method of C. A. Winter [refer to Proc. Soc. Exp. Biol. Med., 111, 544(1962)]in which the ratio of inhibiting the carrageenin-induced edema is determined.
(§1) An aqueous suspension of each specimen in an aqueous 1% carboxymethoxycellulose solution was orally administered to the rat in volume of 1 ml per 100 g body weight. The rat as the control group was administered with only an aqueous 1% solution of carboxymethoxycellulose. One hour after the administration, 0.1 ml of an aqueous 1% solution of carrageenin in physiological saline was injected into the plantar tissue of the right hind paw of the rat. Then, after 4 hours from the injection, the volume of the injected foot was measured to find the volume of swelling by subtracting the volume of foot before the injection from that value.
(§2) By comparing the volume of the swelling of the administered group to that of the control group, the ratio of inhibiting the swelling (I.R., %) was calculated according to the following formula: [formula] wherein T represents the average volume of swelling in the group administered with the specimen, and
(§3) C represents the average volume of swelling in the control group.

in vivo = conditions: oral, mouse, in olive oil, 14 days observation
Experimental: Acute toxicity of the present compound were determined as follows.
Each of the specimens was dispersed in an olive oil. The dispersion was administered to an ICR-JCL mouse orally by a stomach sonde at a predetermined amount. After administration, the intoxication symptoms were continuously observed for 14 days. LD50 value was obtained from the cumulative mortality of the mice by applying the data to the Litchfield-Wilcoxon's graphical method.

[2] = test system: carrageenin-induced edema; assay: Anti-inflammatory activity: inhibition of carrageenin-induced edema (Example 7, rats of 92 to 112 g); assay type: in vivo, rat (female Wister)
Experimental: […] A. Winter [refer to Proc. Soc.
as §1, §2, §3

SMILES | Inhibitation of carrageenin-induced edema ([1]; oral dose 5 mg/Kg) [%] | Inhibitation of carrageenin-induced edema ([1]; oral dose 10 mg/Kg) [%] | Inhibitation of carrageenin-induced edema ([1]; oral dose 50 mg/Kg) [%] | Inhibitation of carrageenin-induced edema ([1]; oral dose 100 mg/Kg) [%] | Inhibitation of carrageenin-induced edema ([1]; oral dose 200 mg/Kg) [%] | LD50 at 336 h (in vivo) [mg/kg] | Inhibitation of carrageenin-induced edema ([1]; oral dose 25 mg/Kg) [%] | Inhibition of carrageenin-induced edema ([2]; oral dose 25 mg/kg) [%] | Inhibition of carrageenin-induced edema ([2]; oral dose 100 mg/kg) [%] | Inhibitation of carrageenin-induced edema ([1]; oral dose 2.5 mg/Kg) [%]
CC(C(=O)O)c1ccc(CC(C)C(F)(F)F)cc1 (centres unmarked) [Specimen II, 2-[p-(2-methyl-3,3,3-trifluoropropyl)phenyl]propionic acid] | 37 | 40 | 50 | 54 | 65 | 1040 | – | – | – | –
CC(C)Cc1ccc(C(C)C(=O)O)cc1 (centres unmarked) [Specimen IV, 2-(p-isobutylphenyl)propionic acid, reference compound] | – | – | 40 | 42 | 52 | – | 29 | – | – | –
CC(C(=O)O)c1ccc(CCC(F)(F)F)cc1 (centres unmarked) [Specimen III, 2-[p-(3,3,3-trifluoropropyl)phenyl]propionic acid] | – | – | – | – | – | 1000 | – | 38 | 44 | –
CC(=O)Oc1ccccc1C(=O)O [Specimen V, acetyl salicyclic acid, reference compound] | – | – | – | – | – | – | – | 10 | 28 | –
CC(C(=O)O)c1ccc(CC(C(F)(F)F)C(F)(F)F)cc1 (centres unmarked) [Specimen I, 2-[p-(2-trifluoromethyl-3,3,3-trifluoropropyl)phenyl]propionic acid] | 40 | 46 | 55 | 57 | 63 | 1100 | 50 | – | – | 37
